Measured values from paper PMC7139875, “4-Pyridinio-1,4-Dihydropyridines as Calcium Ion Transport Modulators: Antagonist, Agonist, and Dual Action” (Oxidative Medicine and Cellular Longevity, 2020).
Where two headings read alike, the source gives them in different places.

Tests used:
isolated rat aortic ring = assay: Isolated rat aortic ring model, KCl precontracted denuded rings; conditions: KCl precontracted denuded rat aortic rings; read-out: Calcium channel blocking activity EC50
Experimental: The experimental animal (one rat) was anesthetized with pentobarbital sodium (60 mg/kg i.p.). Once deep anesthesia was achieved, the thoracic aorta was dissected, placed in ice cold Krebs-Henseleit (K-H) buffer (content in mM: NaCl 118, KCl 4.7, CaCl2 2.5, MgCl2 1.64, NaHCO3 24.88, KH2PO4 1.18, glucose 10.0, sodium pyruvate 5.0, and disodium salt of ethylenediaminetetraacetic acid 0.05), cleaned from connective and fatty tissues, and cut into 3-4 mm long rings. Endothelium was mechanically scraped off with the tips of forceps, and the aortic rings were mounted between two stainless steel hooks attached to an isometric force transducer in 20 ml organ bath in K-H buffer bubbled with 95% O2 and 5% CO2 at 37°C (one separate aortic ring was used for each tested compound). Passive tension was adjusted to approximately 40 mN over a 60 min equilibration period. The experiment was started after the equilibration period by adding KCl solution to obtain a concentration of 50 mM. Addition of KCl induced contraction of the aortic rings, and a plateau of contraction was reached about […]. Thereafter, the tested compound solutions in dimethyl sulfoxide were added to the aortic rings in order to obtain the final concentrations in the range of 10^−10-10^−5 M. Changes in the tension were recorded using LabChart Pro software from ADInstruments (https://www.adinstruments.com/products/labchart/labchart-for-research). The EC50 values of the tested compounds were calculated using Prism 3.0 software from GraphPad (GraphPad Software Inc., USA) (https://www.graphpad.com/scientific-software/prism/). The experimental procedures involving experimental animals were carried out in accordance with the guidelines of the European Community, LR local laws and policies, and were approved by the Latvian Animal Protection Ethical Committee, the Food and Veterinary Service, Riga, Latvia.

[1] = system: carbachol-dependent mobilization of intracellular Ca2+ in SH-SY5Y cells; assay: Antagonist effect on carbachol-evoked intracellular Ca2+ mobilization (Fluo-4 NW); format: cell-based, human; conditions: Homo sapiens; SH-SY5Y cells, 100 nM carbachol, 15 min preincubation; read-out: Antagonist activity (IC50)
Experimental: (§1) The intracellular free Ca^2+ concentration [Ca^2+]i was measured in confluent monolayers of SH-SY5Y or A7R5 cells with the Ca^2+-sensitive fluorescent indicator Fluo-4 NW according to the instruction (Fluo-4 NW Calcium Assay Kit, Thermo Fisher Scientific, cat. No. F36206) (as referenced by Vilskersts et al..
The investigation of Ca^2+ channel blocking activity of DHP derivatives was based on the effect of DHP on carbachol evoked intracellular Ca^2+ mobilization in human neuroblastoma cells.
The cells were preincubated in the dark for 15 minutes with the tested compounds at concentrations ranging from 0.16 to 100 μM. The application of carbachol (100 nM) to […] NW loaded SH-SY5Y cells stimulated a classic “biphasic” response. The well-known 3rd generation calcium channel inhibitor amlodipine, which is also claimed to act as antioxidant and free radical scavenger, was used as the positive control (at the concentration range from 20 to 100 μM).
(§2) Changes in [Ca^2+]i were measured from the fluorescence emitted at 516 nm due to alternate excitation at 494 nm using the microplate reader Tecan Infinite M1000 (Austria). Intracellular Ca^2+ concentration was calculated from a standard curve with known amounts of free Ca^2+ using the standard Ca^2+-EGTA buffering system (Calcium Calibration Buffer Kit, cat. No.C-3008, Thermo Fisher Scientific).
The IC50 values for the tested compounds were calculated using GraphPad Prism 4.0 software.

[Ca2+]i in SH-SY5Y cells = Ca2+ channel agonist activity, [Ca2+]i in Fluo-4 NW-loaded cells; format: cell-based, human; conditions: compound at 100 μM
Experimental: as §1
For the investigation of Ca^2+ channel agonist activity of the DHP compound, 4 […] NW loaded SH-SY5Y or A7R5 cells were stimulated by the addition of compound 4 at the concentration range from 4 to 100 μM. The well-known calcium channel agonist Bay K8644 was used as the positive control (at the concentration range from 4 to 100 μM).
as §2
In some experiments, […] NW loaded cells were washed and placed in normal Ca^2+-free HEPES-buffered replacement medium. In Ca^2+ restoration experiments, Ca^2+ was initially absent from the medium and was restored to 1 mM after 870 s of stimulation with compound 4.

[2] = system: Ca2+ ion channel activity evoked by compound 4 in SH-SY5Y cells; assay: Inhibitor analysis of Ca2+ ion channel activity evoked by compound 4; format: cell-based, human
Experimental: The intracellular free Ca^2+ concentration [Ca^2+]i was measured in confluent monolayers of SH-SY5Y or […] cells with the Ca^2+-sensitive fluorescent indicator Fluo-4 NW according to the instruction (Fluo-4 NW Calcium Assay Kit, Thermo Fisher Scientific, cat. No. F36206) (as referenced by […] al.. Changes in [Ca^2+]i were measured from the fluorescence emitted at 516 nm due to alternate excitation at 494 nm using the microplate reader Tecan Infinite M1000 (Austria). Intracellular Ca^2+ concentration was calculated from a standard curve with known amounts of free Ca^2+ using the standard Ca^2+-EGTA buffering system (Calcium Calibration Buffer Kit, cat. No.C-3008, Thermo Fisher Scientific). […] The commercial calcium agonist compound Bay […] was used as the reference compound.

[3] = system: carbachol-dependent mobilization of intracellular Ca2+ in SH-SY5Y cells; design: method as in earlier work; conditions: SH-SY5Y cells stimulated by 100 nM carbachol; read-out: Antagonist effect IC50; cited from earlier work

In the case of CCOC(=O)C1=C(COCCN)NC(C)=C(C(=O)OC)C1c1ccccc1Cl (stereo not drawn) [Amlodipine], the EC50 (isolated rat aortic ring) is reported as 0.0143 ± 0.0003 µM, the IC50 [1] is reported as 11 ± 2 µM and the “Agonist activity (RFU, 100 μM)” value ([Ca2+]i in SH-SY5Y cells) is reported as “No effect”. For the same molecule, the inhibition at 100 µM ([2]; Homo sapiens, SH-SY5Y, inhibitor 100 μM, 15 min preincubation, 100 μM compound 4) was 50 ± 11%, the IC50 ([2]; Homo sapiens, 100 μM compound 4, SH-SY5Y cells, read-out: IC50 for inhibition of Ca2+ ion channel activity evoked by compound 4) was 100 µM and the “Inhibition (%) of Ca2+ ion channel activity evoked by compound 4” value ([2]; inhibitor 4 μM, 100 μM compound 4) was 0 ± 6%. For the same molecule, the “Inhibition (%) of Ca2+ ion channel activity evoked by compound 4” value ([2]; inhibitor 20 μM, 100 μM compound 4) was 10 ± 11%, the “Phase of the compound 4 response that is inhibited” value ([2]; inhibitor 100 μM, 100 μM compound 4) was “inhibited the first phase of the response” and the IC50 [3] was 13 µM.
